Source: publication PMC11995724, “Antibiotic target discovery by integrated phenotypic and activity-based profiling of electrophilic fragments” (Cell chemical biology, 2025)

Assay: in vitro
Conditions: human, hek293t cells

C=CC(=O)NC(C)Cc1cccn1C (stereo not shown) [3-M22, N-[1-(1-methyl-1H-pyrrol-2-yl)propan-2-yl]prop-2-enamide]
viability at 48 h, 25 µM: 70.2%

C=CC(=O)N1CCC(C(=O)NCc2ccccc2-n2cccn2)CC1 [3-N03, 1-(prop-2-enoyl)-N-{[2-(1H-pyrazol-1-yl)phenyl]methyl}piperidine-4-carboxamide]
viability at 48 h, 25 µM: 68%

C=CC(=O)N1CCC(c2nnc(C)o2)CC1 [3-N04, 1-[4-(5-methyl-1,3,4-oxadiazol-2-yl)piperidin-1-yl]prop-2-en-1-one]
viability at 48 h, 25 µM: 87.3%

C=CC(=O)N1CCC(C(=O)NCc2ccc(C(N)=O)nc2)CC1 [3-N05, 5-({[1-(prop-2-enoyl)piperidin-4-yl]formamido}methyl)pyridine-2-carboxamide]
viability at 48 h, 25 µM: 59.8%

C=CC(=O)NCc1ccc(C(=O)N2CCCOC(C)(C)C2)cc1 [3-N06, N-{[4-(2,2-dimethyl-1,4-oxazepane-4-carbonyl)phenyl]methyl}prop-2-enamide]
viability at 48 h, 25 µM: 70.7%

C=CC(=O)NCc1nnc2n1CCCCC2 [3-N07, N-({5H,6H,7H,8H,9H-[1,2,4]triazolo[4,3-a]azepin-3-yl}methyl)prop-2-enamide]
viability at 48 h, 25 µM: 43.2%

C=CC(=O)NCc1n[nH]c(=O)n1C1CC1 [3-N08, N-[(4-cyclopropyl-5-oxo-4,5-dihydro-1H-1,2,4-triazol-3-yl)methyl]prop-2-enamide]
viability at 48 h, 25 µM: 80%

C=CC(=O)N1CCc2c(ncn2-c2ccccc2)C1 [3-N09, 1-{1-phenyl-1H,4H,5H,6H,7H-imidazo[4,5-c]pyridin-5-yl}prop-2-en-1-one]
viability at 48 h, 25 µM: 70.1%

C=CC(=O)N1CCC(C(=O)NCc2ccc(S(N)(=O)=O)cc2)CC1 [3-N10, 1-(prop-2-enoyl)-N-[(4-sulfamoylphenyl)methyl]piperidine-4-carboxamide]
viability at 48 h, 25 µM: 85.1%

C=CC(=O)NC1CCn2cccc2C1 (stereo not shown) [3-N11, N-(5,6,7,8-tetrahydroindolizin-7-yl)prop-2-enamide]
viability at 48 h, 25 µM: 71.4%

C=CC(=O)N1CCC(C(=O)NCc2cccc(Cl)c2F)CC1 [3-N12, N-[(3-chloro-2-fluorophenyl)methyl]-1-(prop-2-enoyl)piperidine-4-carboxamide]
viability at 48 h, 25 µM: 87.6%

C=CC(=O)NC(C)c1nnc(-c2ccccc2F)s1 (stereo not shown) [3-N13, N-{1-[5-(2-fluorophenyl)-1,3,4-thiadiazol-2-yl]ethyl}prop-2-enamide]
viability at 48 h, 25 µM: 76%

C=CC(=O)NC(c1ccc(F)cc1)c1ccccn1 (stereo not shown) [3-N14, N-[(4-fluorophenyl)(pyridin-2-yl)methyl]prop-2-enamide]
viability at 48 h, 25 µM: 97%

C=CC(=O)NCc1cc(Cl)cc(S(C)(=O)=O)c1 [3-N15, N-[(3-chloro-5-methanesulfonylphenyl)methyl]prop-2-enamide]
viability at 48 h, 25 µM: 76.8%

C=CC(=O)N[C@H](C)c1ccccc1OC(C)C [3-N16, N-[(1R)-1-[2-(propan-2-yloxy)phenyl]ethyl]prop-2-enamide]
viability at 48 h, 25 µM: 82.5%

C=CC(=O)NCC1CS(=O)(=O)c2ccccc2O1 (stereo not shown) [3-N17, N-[(4,4-dioxo-2,3-dihydro-1,4lambda6-benzoxathiin-2-yl)methyl]prop-2-enamide]
viability at 48 h, 25 µM: 79.4%

C=CC(=O)N1Cc2c(C(=O)O)cnn2CC1C (stereo not shown) [3-N18, 6-methyl-5-(prop-2-enoyl)-4H,5H,6H,7H-pyrazolo[1,5-a]pyrazine-3-carboxylic acid]
viability at 48 h, 25 µM: 87%

C=CC(=O)NCCc1nc(C)no1 [3-N19, N-[2-(3-methyl-1,2,4-oxadiazol-5-yl)ethyl]prop-2-enamide]
viability at 48 h, 25 µM: 74.2%

C=CC(=O)NCc1nc2cc(F)ccc2o1 [3-N20, N-[(5-fluoro-1,3-benzoxazol-2-yl)methyl]prop-2-enamide]
viability at 48 h, 25 µM: 84.7%

C=CC(=O)NCc1cn(C2CCCC2)nc1C [3-N21, N-[(1-cyclopentyl-3-methyl-1H-pyrazol-4-yl)methyl]prop-2-enamide]
viability at 48 h, 25 µM: 55.5%

C=CC(=O)NCc1ccc(C(=O)NC2CC(=O)N(C)C2)cc1 (stereo not shown) [3-N22, N-(1-methyl-5-oxopyrrolidin-3-yl)-4-[(prop-2-enamido)methyl]benzamide]
viability at 48 h, 25 µM: 81.2%

C=CC(=O)N1CCC(CCO)c2ccccc21 (stereo not shown) [3-O03, 1-[4-(2-hydroxyethyl)-1,2,3,4-tetrahydroquinolin-1-yl]prop-2-en-1-one]
viability at 48 h, 25 µM: 58.4%

C=CC(=O)N1CCC(C(=O)NC[C@H]2C[C@@H](O)C2)(c2ccccc2)CC1 [3-O04, 4-phenyl-1-(prop-2-enoyl)-N-{[(1s,3s)-3-hydroxycyclobutyl]methyl}piperidine-4-carboxamide]
viability at 48 h, 25 µM: 118%

C=CC(=O)NCc1ccc(C(=O)N2CCCC2)cc1 [3-O05, N-{[4-(pyrrolidine-1-carbonyl)phenyl]methyl}prop-2-enamide]
viability at 48 h, 25 µM: 71.6%

C=CC(=O)Nc1cc(C)c(CC)cc1OC [3-O06, N-(4-ethyl-2-methoxy-5-methylphenyl)prop-2-enamide]
viability at 48 h, 25 µM: 82%

C=CC(=O)N1CCC(Cc2nc3ccc(F)cc3o2)CC1 [3-O07, 1-{4-[(6-fluoro-1,3-benzoxazol-2-yl)methyl]piperidin-1-yl}prop-2-en-1-one]
viability at 48 h, 25 µM: 47.3%

C=CC(=O)Nc1ccc(C(=O)N2CCC(S(=O)(=O)NC)C2)cc1 (stereo not shown) [3-O08, N-{4-[3-(methylsulfamoyl)pyrrolidine-1-carbonyl]phenyl}prop-2-enamide]
viability at 48 h, 25 µM: 95.4%

C=CC(=O)N1CCCC2(CCCCO2)C1 (stereo not shown) [3-O09, 1-{1-oxa-8-azaspiro[5.5]undecan-8-yl}prop-2-en-1-one]
viability at 48 h, 25 µM: 57%

C=CC(=O)N(C)CC(=O)N1CCN(C(=O)C2CCCCC2)CC1 [3-O10, N-[2-(4-cyclohexanecarbonylpiperazin-1-yl)-2-oxoethyl]-N-methylprop-2-enamide]
viability at 48 h, 25 µM: 93.8%

C=CC(=O)N1CCOCC1c1noc(C)n1 (stereo not shown) [3-O11, 1-[3-(5-methyl-1,2,4-oxadiazol-3-yl)morpholin-4-yl]prop-2-en-1-one]
viability at 48 h, 25 µM: 51.5%

C=CC(=O)N1CCC(C(=O)Nc2nncn2C)(c2ccccc2)CC1 [3-O12, N-(4-methyl-4H-1,2,4-triazol-3-yl)-4-phenyl-1-(prop-2-enoyl)piperidine-4-carboxamide]
viability at 48 h, 25 µM: 106%

C=CC(=O)NCC1(S(=O)(=O)CC)CC1 [3-O13, N-{[1-(ethanesulfonyl)cyclopropyl]methyl}prop-2-enamide]
viability at 48 h, 25 µM: 48.1%

C=CC(=O)N1CCC(C(=O)NCc2cnn(-c3ccccc3)c2)CC1 [3-O14, N-[(1-phenyl-1H-pyrazol-4-yl)methyl]-1-(prop-2-enoyl)piperidine-4-carboxamide]
viability at 48 h, 25 µM: 91.1%

C=CC(=O)Nc1ccc2c(c1)S(=O)(=O)CC2 [3-O15, N-(1,1-dioxo-2,3-dihydro-1lambda6-benzothiophen-6-yl)prop-2-enamide]
viability at 48 h, 25 µM: 63.9%

C=CC(=O)N1CCC(Cc2nccs2)C1 (stereo not shown) [3-O16, 1-{3-[(1,3-thiazol-2-yl)methyl]pyrrolidin-1-yl}prop-2-en-1-one]
viability at 48 h, 25 µM: 98.7%

C=CC(=O)NCCC(=O)N1CC[S+]([O-])C(C)(C)CC1 (stereo not shown) [3-O17, N-[3-(7,7-dimethyl-1-oxo-1lambda4,4-thiazepan-4-yl)-3-oxopropyl]prop-2-enamide]
viability at 48 h, 25 µM: 58.5%

C=CC(=O)NC1CCCN(C2CCCCC2)C1=O (stereo not shown) [3-O18, N-(1-cyclohexyl-2-oxopiperidin-3-yl)prop-2-enamide]
viability at 48 h, 25 µM: 92.1%

C=CC(=O)N1CCC(C(=O)NCc2ccc(OC)cn2)CC1 [3-O19, N-[(5-methoxypyridin-2-yl)methyl]-1-(prop-2-enoyl)piperidine-4-carboxamide]
viability at 48 h, 25 µM: 59%

C=CC(=O)N1CCCCC1c1nc2ccccc2o1 (stereo not shown) [3-O20, 1-[2-(1,3-benzoxazol-2-yl)piperidin-1-yl]prop-2-en-1-one]
viability at 48 h, 25 µM: 82.3%

C=CC(=O)Nc1cnn(C2CCCC2)c1 [3-O21, N-(1-cyclopentyl-1H-pyrazol-4-yl)prop-2-enamide]
viability at 48 h, 25 µM: 70.5%

C=CC(=O)NCc1cccc(C(C)(F)F)c1 [3-O22, N-{[3-(1,1-difluoroethyl)phenyl]methyl}prop-2-enamide]
viability at 48 h, 25 µM: 136%

C=CC(=O)N1CCC(C(=O)NCc2ncnn2CC)CC1 [3-P03, N-[(1-ethyl-1H-1,2,4-triazol-5-yl)methyl]-1-(prop-2-enoyl)piperidine-4-carboxamide]
viability at 48 h, 25 µM: 71.2%

C=CC(=O)NC1(c2ccccc2)CCOC1 (stereo not shown) [3-P04, N-(3-phenyloxolan-3-yl)prop-2-enamide]
viability at 48 h, 25 µM: 89.3%

C=CC(=O)NCc1ccc(C(=O)N2CCC(C#N)CC2)cc1 [3-P05, N-{[4-(4-cyanopiperidine-1-carbonyl)phenyl]methyl}prop-2-enamide]
viability at 48 h, 25 µM: 46.3%

C=CC(=O)N(C)CC(=O)Nc1ccc(N2CCC(O)CC2)cc1 [3-P06, N-({[4-(4-hydroxypiperidin-1-yl)phenyl]carbamoyl}methyl)-N-methylprop-2-enamide]
viability at 48 h, 25 µM: 65.6%

C=CC(=O)NC(c1nnc2n1CCC2)C(C)C (stereo not shown) [3-P07, N-(2-methyl-1-{5H,6H,7H-pyrrolo[2,1-c][1,2,4]triazol-3-yl}propyl)prop-2-enamide]
viability at 48 h, 25 µM: 52.1%

C=CC(=O)NCc1ccc(C(C)(C)C)[nH]c1=O [3-P08, N-[(6-tert-butyl-2-oxo-1,2-dihydropyridin-3-yl)methyl]prop-2-enamide]
viability at 48 h, 25 µM: 76.4%

C=CC(=O)N1CCC(Cn2cnnc2)CC1 [3-P09, 1-{4-[(4H-1,2,4-triazol-4-yl)methyl]piperidin-1-yl}prop-2-en-1-one]
viability at 48 h, 25 µM: 43.5%

C=CC(=O)N1CCC(C(=O)NCC(C)c2ncc(C)s2)CC1 (stereo not shown) [3-P10, N-[2-(5-methyl-1,3-thiazol-2-yl)propyl]-1-(prop-2-enoyl)piperidine-4-carboxamide]
viability at 48 h, 25 µM: 61.4%

C=CC(=O)N[C@H]1CCN(S(=O)(=O)c2ccccc2)C1 [3-P11, N-[(3S)-1-(benzenesulfonyl)pyrrolidin-3-yl]prop-2-enamide]
viability at 48 h, 25 µM: 54.4%

C=CC(=O)N1CCC(C(=O)N[C@H](C)c2ccc3c(c2)CCCC3)CC1 [3-P12, 1-(prop-2-enoyl)-N-[(1R)-1-(5,6,7,8-tetrahydronaphthalen-2-yl)ethyl]piperidine-4-carboxamide]
viability at 48 h, 25 µM: 58%

C=CC(=O)NC1(Cc2ccccc2)CC1 [3-P13, N-(1-benzylcyclopropyl)prop-2-enamide]
viability at 48 h, 25 µM: 61.5%
